This note sets out measurements from PubChem BioAssay (NCI).

Common to all, as to assay: DTP human tumour cell line panel, 48 h
The test system of experiment [1] is A498 renal.
Experiment [2] relates to BT-549 breast.
Experiment [3] deals with EKVX NSCLC.
Experiment [4] has as its system HCC-2998 colon.
The test system of experiment [5] is LOX IMVI melanoma.
Experiment [6] relates to NCI/ADR-RES ovarian.
In experiment [7] the test system is PC-3 prostate.
The subject of experiment [8] is U251 CNS.
In experiment [9] the test system is DLD-1 colon.
The subject of experiment [10] is DMS 273 small cell lung.

Each structure is given as a SMILES string.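 Values below derive from 48-hour exposures of cells grown in 96-well plates, with endpoints linearly interpolated between the two concentrations bracketing the appropriate inhibition level. The concentration for 50% growth inhibition is given as GI50. At the TGI there is no net growth.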 Bounds are passed on as bounds.

For `CCN(CC)c1ccc(/C=C/C=C2C(=O)NC(=S)NC2=O)cc1`, the TGI in experiment [1] is greater than 100 µM; in experiment [2] it was greater than 75.4 µM; in experiment [3], greater than 100 µM; in [4], greater than 100 µM; in [5] it was greater than 100 µM; in experiment [6] it was 41.8 µM. The values for the TGI in experiment [7] and in [8] were greater than 100 µM and greater than 80.8 µM, respectively.
In the case of `O=C(Nc1ccccc1)c1cc(S(=O)(=O)N2CCNNC2=O)c(S)cc1Cl`, the TGI in experiment [1], in [2], in experiment [3], in [4], in experiment [5] and in experiment [6] was greater than 100 µM throughout. Moreover, the total growth inhibition concentration (TGI) in [7] and in experiment [8] was greater than 100 µM each time.
For the compound `c1cnc(N2CCN(Cc3c[nH]c4ccccc34)CC2)nc1`, the TGI is greater than 100 µM in [1]; greater than 100 µM in experiment [2]; greater than 100 µM in experiment [3]; 38.9 µM in experiment [4]; greater than 100 µM in [5]; greater than 100 µM in experiment [6]. In addition, the TGI in experiment [7] and in experiment [8] was greater than 100 µM in each case.
For the compound `CCn1c(SCC(=O)NNC(=S)NC)nc2ccccc2c1=O`, the TGI in [1], in experiment [2], in experiment [3], in experiment [4], in [5] and in experiment [6] was greater than 100 µM in each case. The TGI in [7] and in experiment [8] was greater than 100 µM each time.
Turning to `O=c1cnn(CCOCP(=O)(O)O)c(=O)[nH]1`, the TGI in experiment [1], in experiment [2], in experiment [3], in [4], in experiment [5] and in experiment [6] was greater than 100 µM throughout. The TGI in experiment [7] and in [8] was greater than 100 µM throughout.
For `Cc1ccc2c(c1)C(=O)C(C1OC(=O)c3ccccc31)C2` (stereo not given), the TGI in experiment [1], in [2], in experiment [3], in experiment [4], in experiment [5] and in experiment [6] was greater than 100 µM each time. Besides, the TGI in experiment [7] and in experiment [8] was greater than 100 µM each time.
On to `COC(=O)c1ccc(Nc2nc3nc[nH]c3c(=O)[nH]2)cc1`, for which the TGI in experiment [1], in [2], in experiment [3], in [4], in [5] and in experiment [6] was greater than 100 µM each time. The TGI in experiment [7] and in experiment [8] was greater than 100 µM each time.
Take `CC(=O)[CH-]C(=O)c1ccccc1.CC(=O)[CH-]C(=O)c1ccccc1.C[C@]12CCC(=O)C=C1CC[C@@H]1C2CC[C@@]2(C)C1CC[C@]2(C)[O-].C[C@]12CCC(=O)C=C1CC[C@@H]1C2CC[C@@]2(C)C1CC[C@]2(C)[O-].Cl.[Ti+4]` (stereo not given in full): the GI50 in experiment [1] is 15.3 µM; in experiment [9], 12.2 µM; in [10] it was 17.4 µM; in [3] it was 17.3 µM; in [4], 17.3 µM; in [5], 18.6 µM. The GI50 in [8] is 15.2 µM. In addition, the TGI in experiment [1] was determined as 31.1 µM; in experiment [9], 40.9 µM; in experiment [10], 89.9 µM; in experiment [3], 44.7 µM; in experiment [4], 41.7 µM; in experiment [5], 48.8 µM. In experiment [8], this compound gave a TGI of 54.2 µM.
Take `CN(C)c1cc[n+](-c2nc(/N=C(\[O-])C(F)(F)F)nc3c2ncn3C2CC(O)C(CO)O2)cc1` (stereo not given): the TGI in [1], in experiment [2], in [3], in experiment [4], in [5] and in experiment [6] was greater than 100 µM throughout. In addition, the TGI in experiment [7] and in experiment [8] was greater than 100 µM throughout.
On to `CSc1c(C(=O)Nc2ccc(Cl)cc2)c(N)n(N)c(=O)c1C#N`, for which the TGI in experiment [1], in [2], in experiment [3], in experiment [4], in [5] and in experiment [6] was greater than 100 µM each time. The TGI in experiment [7] and in experiment [8] was greater than 100 µM throughout.
With `CCc1ccccc1NNc1cc(=O)[nH]c(=O)[nH]1`, the TGI is 45.8 µM in experiment [1]; 41.4 µM in [2]; 33.9 µM in experiment [3]; 40.1 µM in experiment [4]; 29.4 µM in experiment [5]; greater than 100 µM in experiment [6]. The total growth inhibition concentration (TGI) amounted to 32.8 µM in experiment [7] and 31.2 µM in experiment [8].
Regarding `O=C1C(CN2CCOCC2)CCCC1CN1CCOCC1` (stereo not given), the TGI stood at 42.3 µM in experiment [1]; 3.5 µM in [2]; 1.83 µM in [9]; 19.4 µM in experiment [10]; 10.7 µM in [3]; 10.3 µM in [4]. Besides, the figures for the TGI in [5], in experiment [7] and in experiment [8] were 8.98 µM, 28.9 µM and 45 µM, respectively.
As to `S=C(Nc1ccc2cn[nH]c2c1)Nc1ccc2cn[nH]c2c1`, the TGI in experiment [1], in [2], in experiment [3], in experiment [4], in experiment [5] and in experiment [6] was greater than 100 µM each time. Also, the TGI in experiment [7] and in experiment [8] was greater than 100 µM in each case.
Turning to `CSC1NC(c2ccc(Cl)cc2)=C(C#N)C(=O)N1C1OCC(OC(C)=O)C(OC(C)=O)C1OC(C)=O` (stereo not given), the TGI in experiment [1], in experiment [2], in experiment [3], in [4], in experiment [5] and in experiment [6] was greater than 100 µM throughout. Besides, the TGI in experiment [7] and in experiment [8] was greater than 100 µM each time.
Consider `COc1cc(C2c3cc4c(cc3OC(NCCO)C2C)OCO4)cc(OC)c1OC` (stereo not given), for which the TGI was 2.81 µM in [1]; greater than 100 µM in experiment [2]; greater than 100 µM in experiment [3]; greater than 23.2 µM in experiment [4]; greater than 100 µM in experiment [5]; greater than 100 µM in [6]. Also, the figures for the TGI in [7] and in [8] were greater than 100 µM and 12.5 µM, respectively.
Regarding `O=[N+]([O-])c1ccc(O)c(/C=N/NC(=S)N2CCCCC2)c1`, the TGI in experiment [1] is greater than 44.2 µM; in [2], 63.4 µM; in [3] it was 15.3 µM; in [4], 34.1 µM; in experiment [5] it was 17.1 µM; in [6], 3.85 µM. For the same compound, the TGI in [7] is greater than 92.7 µM; in [8] it was 90.3 µM.
As to `C[N+]1(CCN[N+]2(C)CCCCC2)CCc2ccccc2C1` (stereo not given), the TGI in experiment [1], in [2], in experiment [3], in experiment [4], in [5] and in experiment [6] was greater than 100 µM each time. For the same compound, the TGI in experiment [7] and in experiment [8] was greater than 100 µM in each case.
On to `NC(Cc1ccc(S(=O)(=O)O)cc1)C(=O)NC(Cc1ccc(S(=O)(=O)O)cc1)C(=O)O` (stereo not given), for which the TGI in experiment [1], in [2], in experiment [3], in experiment [4], in experiment [5] and in [6] was greater than 100 µM throughout. Further, the TGI in experiment [7] and in experiment [8] was greater than 100 µM each time.
On to `CCOC(=O)Cc1nc2c(N)ncnc2n1C1OC(COC(C)=O)C(OC(C)=O)C1OC(C)=O` (stereo not given), for which the TGI in experiment [1], in experiment [2], in experiment [3], in [4], in experiment [5] and in experiment [6] was greater than 100 µM throughout. Moreover, the TGI in experiment [7] and in experiment [8] was greater than 100 µM throughout.
Regarding `O=C1Nc2ccccc2Nc2ccncc21`, the TGI in experiment [1], in experiment [9], in experiment [10], in experiment [3], in experiment [4] and in experiment [5] was greater than 100 µM in each case. Besides, the TGI in experiment [6] and in experiment [8] was greater than 100 µM throughout.
With `CC1CC(=O)N(N(C)C)C(C#N)(C#N)C1(C#N)C#N` (stereo not given), the TGI in experiment [1] came to 34.1 µM; in experiment [2] it was 32.7 µM; in [3], 57.5 µM; in experiment [4] it was 34.9 µM; in [5], 42.7 µM; in experiment [6], 55 µM. For the same compound, the TGI in [7] was 34.8 µM; in [8], 42.4 µM.
As to `CC(=O)Oc1ccc(/C=C/C(=O)O[C@@H](C(=O)O)[C@@H](OC(=O)/C=C/c2ccc(OC(C)=O)c(OC(C)=O)c2)C(=O)O)cc1OC(C)=O`, the TGI in experiment [1], in [2], in experiment [3], in experiment [4], in experiment [5] and in [6] was greater than 100 µM each time. Moreover, the concentration for total growth inhibition (TGI) in [7] and in [8] was greater than 100 µM each time.
As to `CC(C)(C)N(Cc1ccc2c(c1)OCO2)C(=O)/C=C\Sc1ccccc1`, the TGI in experiment [1], in experiment [2], in experiment [3], in [4], in [5] and in experiment [6] was greater than 100 µM each time. Further, the TGI in experiment [7] and in [8] was greater than 100 µM in each case.
On to `O=C1c2cn[nH]c2C(c2ccccc2)N1c1ccccc1` (stereo not given), for which the TGI in [1], in experiment [2], in experiment [3], in experiment [4], in [5] and in [6] was greater than 10 µM each time. The TGI in experiment [7] and in experiment [8] was greater than 10 µM throughout.
As for `CC(=O)N1CCn2c1nc1cc(Cl)ccc12`, the TGI in [1], in experiment [2], in experiment [3], in [4], in experiment [5] and in [6] was greater than 100 µM each time. For the same compound, the TGI in experiment [7] and in experiment [8] was greater than 100 µM in each case.
`C(=C\N1CCCCC1)/c1nnnn1-c1ccccc1`: the TGI in experiment [1] was greater than 100 µM; in experiment [2], greater than 100 µM; in experiment [3], 63.1 µM; in experiment [4], greater than 100 µM; in experiment [5] it was 50.9 µM; in [6], 64.5 µM. Besides, the TGI in experiment [7] was greater than 100 µM; in experiment [8], 80.3 µM.

For orientation: TGI means the concentration at which net growth stops. High values mean lower sensitivity of the cells, low ones greater sensitivity of the cells. In general, GI50 refers to the concentration at which growth is held to half of that of the control.
